# How the values were obtained:
# [1] = test system: Ppargc1a pathway in the brain
# Procedure: To induce symptoms of PD, MPTP (20 mg/kg) was administered intraperitoneally in sterile PBS 4 times at 2-hour intervals on day 1. […] Log-rank test was used for statistical analysis.
# Ppargc1a, an inducer of mitochondrial biogenesis, is widely expressed in cells throughout the body.
# For gene expression studies, animals were sacrificed on Day 4, 24 hours after the 3rd oral dosage of ZLN005, and PBS-perfused brain tissues were processed for RNA isolation, cDNA synthesis, and real-time quantitative PCR (Invitrogen). […] Unpaired t-tests were used for statistical analyses.
# [2] = test system: brain perivascular macrophages; assay: Brain perivascular macrophage iNOS, IL6, TNFα in ALS transgenic animals; format: in vivo, mice; settings: 25 mg/kg orally 3 times a week for 8 weeks, 13 weeks of age
# Procedure: ALS transgenic animals were purchased from Jackson Laboratories. These animals express the G93A mutation in the gene SOD1 which has been implicated as the cause of the disease in a subset of human subjects with familial ALS. […] These animals represent a gold standard model for therapeutic discovery in the field of ALS research. ALS transgenic animals were orally treated 3 times a week for 8 weeks with 0.5% methylcellulose or ZLN005 (Sigma) at 25 mg/kg in 0.5% methylcellulose, starting at 5 weeks of age. For study of brain perivascular macrophages, ALS-Ctrl (n=8), ALS-ZLN (n=12), and WT animals (n=12) were sacrificed at 13 weeks of age. PBS-perfused brain tissues of sacrificed animals were digested with Collagenase IV and processed for flow cytometry. Brain perivascular macrophages were phenotyped with antibodies directed against mouse iNOS, IL6, and TNFα (Biolegend) for flow cytometric acquisition (LSRII, BD) and analysis (FlowJo). The results are summarized in FIG. 16; Y-axis represents % of brain perivascular macrophages that express iNOS (A), IL6 (B) and TNFα (C). […] ANOVA was used for statistical analyses.
# microglia [3] = assay: Microglia IL1 and TNFα in 5XFAD AD transgenic animals; format: in vivo, mice; settings: 25 mg/kg orally 3 times a week for 4 weeks, 7 weeks of age
# Excerpt: 5XFAD transgenic mice, which are model of familial AD, were purchased from Jackson Laboratories (Oakley et al J Neurosci. 26:10129-40, 2006). These animals overexpress both mutant human APP(695) with the Swedish (K670N, M671L), Florida (I716V), and London (V7171) Familial Alzheimer's Disease (FAD) mutations and human PS1 harboring two FAD mutations, M146L and L286V. These transgenic mice rapidly recapitulate major features of amyloid pathology in AD by 8-10 weeks of age. Microglia abnormalities and neuroinflammation are also pronounced within this time window. Subsequently, neurodegeneration and behavioral dysfunction that mimic cognitive and psychiatric symptoms of human AD begin and are pronounced by 4-5 months of age. AD transgenic animals were orally treated 3 times a week for 4 weeks with 0.5% methylcellulose or ZLN005 (Sigma) at 25 mg/kg in 0.5% methylcellulose, starting at 3 weeks of age. For studies of microglia, 5[…]=10), 5XFAD-Ctrl (n=8) and WT (n=11) animals were sacrificed at 7 weeks of age. PBS-perfused brain tissues of sacrificed animals were digested with Collagenase IV and processed for flow cytometry. Brain microglia were phenotyped with antibodies directed against mouse IL1 and TNFα (Biolegend) for flow cytometric acquisition (LSRII, BD) and analysis (FlowJo). The results are summarized in FIG. 12; Y-axis represents % of microglia that express IL1 (A) and TNFα (B). […]
# [4] = test system: CD115+CD11b+ blood monocytes; assay: Blood monocyte frequency in 5XFAD AD transgenic animals; format: in vivo, mice; settings: 25 mg/kg orally 3 times a week for 4 weeks, 7 weeks of age
# Procedure: AD transgenic animals were orally treated 3 times a week for 4 weeks with 0.5% methylcellulose or ZLN005 (Sigma) at 25 mg/kg in 0.5% methylcellulose, starting at 3 weeks of age. For measuring the frequency of CD115+CD11b+ blood monocytes, 5[…]=5), 5XFAD-Ctrl (n=4), and WT animals (n=4) were sacrificed at 7 weeks of age. The results are summarized in FIG. 14; Y-axis represents % of total circulating monocytes among circulating immune cells. […] ANOVA was used for statistical analysis.
# microglia [5] = assay: Microglial metabolic phenotyping in MPTP-treated animals (Slc2a1 flow cytometry, ex vivo lactic acid production); parameters: species or system mice; settings: 3 oral doses
# Excerpt: For measuring microglial expression of glucose transporter Slc2a1, MPTP-ZLN (n=10), MPTP-Ctrl (n=14), and Veh animals (n=14) were sacrificed. Brain microglia were phenotyped with antibody directed against glucose transporter Slc2a1 (RnD) for flow cytometric acquisition (LSRII, BD) and analysis (FlowJo). For measuring microglial glycolysis, MPTP-ZLN (n=8), MPTP-Ctrl (n=6), and Veh animals (n=6) were sacrificed. Microglia were sorted by flow cytometry and subjected to lactic acid production assays ex vivo (Cayman Chem) for glycolysis measurement. Y-axis represents Slc2a1 expression in median fluorescence units (MFI, A) and lactic acid production in micromolar units ([…], B). […] ANOVA was used for statistical analyses.
# MPTP-treated animals = assay: Wheel-running test in MPTP model of PD; format: in vivo, mice; settings: 25 mg/kg orally 7 days, accelerating speed 5-15 rpm, Day 8
# Procedure: The wheel-running test has been widely used as one of the most reliable measurements of behavioral dysfunction in animal models of neurodegeneration ([…] et al, Behav Brain Res, 125:109-25, 2001). In this study, animals were trained to run on a treadmill at specific speed and training duration before undergoing a formal test of motor skills. Motor performance of animals was evaluated by the time (seconds) that they remained running on the treadmill, which required motor coordination and strength. […] Animals with microglia-specific deletion of Ppargc1a were generated as described in Example 1. At 7 weeks of age, these animals were subjected to 1.5 weeks of training on a treadmill at a constant speed 10 rpm (rotations per minute) and then 1.5 weeks of training at an accelerating speed from 5-15 rpm. After the training period at 10 weeks of age, animals were treated with MPTP and tested for motor performance at an accelerating speed from 5-15 rpm. […] Unpaired t-tests were used for statistical analyses.
structure (smiles),measurement,setting,value
"CC(C)(C)c1ccc(-c2nc3ccccc3[nH]2)cc1 [ZLN005, 2-(4-tert-butylphenyl)-1H-benzimidazole]","expression of genes involved in Ppargc1a signaling (Pgc1a), mitochondrial genes (Tfam, Nrf2, Ucp3) and anti-oxidative stress genes (Ant, Sod1, Sod2) in the brain","[1]; MPTP-treated animals, 25 mg/kg orally once a day for 3 days, Day 4",increases expression of genes
same,upregulation of tyrosine hydroxylase (Th),"[1]; brain of MPTP-treated animals, 25 mg/kg orally once a day for 3 days, Day 4",15%
same,blood-brain barrier penetration,"[1]; mouse, in vivo, po, 25 mg/kg",penetrated the blood-brain barrier
same,IL6 production in brain perivascular macrophages,[2],"suppressed, although these differences did not reach statistical significance"
same,TNFα production in brain perivascular macrophages,[2],"suppressed, although these differences did not reach statistical significance"
same,iNOS production in brain perivascular macrophages,[2],decreased
same,IL1 production in microglia,microglia [3],decreased
same,TNFα production in microglia,microglia [3],decreased
same,percentage of monocytes among circulating immune cells,[4],decreased
same,lactic acid production in microglia,"microglia [5]; Day 4, ex vivo, vs MPTP-Ctrl",decreased
same,glucose transporter Slc2a1 expression in microglia,"microglia [5]; Day 4, vs MPTP-Ctrl",decreased
same,"latency to fall, wheel running",MPTP-treated animals; MPTP-treated Cre animals,not present in Cre animals
same,"latency to fall, wheel running",MPTP-treated animals; MPTP-treated FF animals,performed significantly better than vehicle treated mice
